The values that follow are results of earlier work, collected in patent US8952066B2, “Pharmaceutical/cosmetic, E.G., anti-acne compositions comprising at least one naphthoic acid compound, benzoyl peroxide and at least one film-forming agent” (Galderma Research & Development, priority 2007, dated 2015).

Read-outs that look alike come from different tables or passages of the source.

For series [1] the following is noted: in presence of the benzoyl peroxide-based formulation.
The conditions of series [2]: 40° C.

Take `COc1ccc(-c2ccc3cc(C(=O)O)ccc3c2)cc1C12CC3CC(CC(C3)C1)C2` [adapalene, 6-[3-(1-adamantyl)-4-methoxyphenyl]-2-naphthoic acid]: the “Degradation of the retinoid (in words)” value in series [1] (for 24 hours) was “no degradation”.
As to `O=C(OOC(=O)c1ccccc1)c1ccccc1` [benzoyl peroxide], the Degradation time in series [2] (in PEG 400 (0.5 mg/g)) is listed as 1.4 days; in series [2] (in ethanol), 29 days; in series [2] (in propylene glycol), 53 days.
Turning to `CC1=C(/C=C/C(C)=C/C=C/C(C)=C/C(=O)O)C(C)(C)CCC1` [tretinoin], the “Degradation of the retinoid” value in series [1] (in 2 hours) was 50%; in series [1] (in 24 hours), 95%.
